Assays:
PAR2 [1] = molecular target: T1, PAR2 (Homo sapiens, UniProt P55085); conditions: cited from earlier work
T1 sequence (P55085 26-397): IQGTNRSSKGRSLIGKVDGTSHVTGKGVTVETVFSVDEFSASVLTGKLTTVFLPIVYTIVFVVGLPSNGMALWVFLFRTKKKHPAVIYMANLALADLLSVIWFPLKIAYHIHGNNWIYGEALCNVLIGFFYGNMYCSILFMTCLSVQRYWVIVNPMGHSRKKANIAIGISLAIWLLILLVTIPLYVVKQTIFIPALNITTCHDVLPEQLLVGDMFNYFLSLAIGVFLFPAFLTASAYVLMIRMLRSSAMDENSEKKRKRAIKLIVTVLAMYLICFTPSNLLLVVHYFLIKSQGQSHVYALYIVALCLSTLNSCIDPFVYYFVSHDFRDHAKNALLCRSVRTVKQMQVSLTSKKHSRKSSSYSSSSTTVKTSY

[2] = system: 2furoyl-LIGRLO-NH2-induced paw oedema; test: PAR2 agonist-induced paw oedema; format: in vivo, Wistar rat; conditions: 10 mg/kg p.o. in olive oil, agonist 350 μg/paw 2 h after oral dose
Experimental: The methods used are based on those previously described (Kelso, E. B., et al. Arthritis Rheum 2007, 56, 765-71; Kelso, E. B., et al. J Pharmacol Exp Ther 2006, 316, 1017-24; and Vergnolle, N. J Immunol 1999, 163, 5064-9). Male Wistar rats (n=3 per group) are used. Briefly, rats are given either 5 or 10 mg/kg of a compound of the present invention (p.o. via gavage in olive oil, approx. 500 μL, weight adjusted). Control animals receive only olive oil (500 μL p.o.). Two hours later, the PAR2 agonist 2-furoyl-LIGRLO (350 μg/paw in saline, 100 μL) is injected into the plantar surface (i.pl.) of the right paw pad using a 30 G needle. The left paw acts as a control, receiving saline only. Paw thickness and width are measured after 30 minutes and hourly using digital calipers (World Precision Instruments, USA) and swelling is calculated in area (mm^2; thickness multiplied by width) and expressed as a percentage change from baseline of each individual paw.
Based on previous methods (Kelso E B et al., J Pharmacol Exp Ther 2006, 316(3):1017-24; Suen J Y et al., Br J Pharmacol 2011, doi: 10.1111/j.1476-5381.2011.01610.x.), PAR2 antagonist 52 (10 mg/kg s.c.; n=4), ENMD-1068 (100 mg/kg s.c.; n=4) or vehicle control (DMSO s.c.; n=2) were administered to male Wistar rats. Baseline paw thickness and width were measured using digital calipers (World Precision Instruments, USA) expressed in area (mm^2; thickness×width). Fifteen minutes later, 2Furoyl-LIGLRO-NH2 (350 μg/paw in 100 μL saline) was injected into of the right hind paw pad (intraplantar, i.pl.). The left hind paw acted as a control, receiving saline only. In a separate experiment, vehicle (500 μL olive oil) versus PAR2 antagonist 52 (10 mg/kg p.o. in 500 μL olive oil) only were administered orally to two groups of rats (4 per group). Two hours later, β-tryptase (human recombinant lung, 20 μg in 100 μL saline) was injected into the right hind paw pad (vehicle in left for control) of all animals in each group. In all experiments, paw swelling was measured and expressed in area (mm^2; thickness×width) and plotted as % change from baseline of each individual paw.

[3] = Stability in rat liver homogenate; format: in vitro ADME, Wistar rat; conditions: 37 °C, up to 180 min
Experimental: Blood and liver is collected form non-drug dosed male and female Wistar rats (aged 8-9 weeks, 200-250 g and 250-300 g respectively). Bloods are centrifuged at 8 K rpm for 5 min. Plasma are pooled and stored at −80° C. for later use. The rat livers are homogenized, diluted with three volumes of PBS, cloth filtered. The filtrate is used directly for stability studies.
Each compound is dissolved in DMSO to make 5 mM stock solution. 10 μL of the stock is diluted with either rat plasma or liver homogenate (490 μL) to make up a starting concentration of […] (triplicates). The mixtures are vortexed and incubated at 37° C. At each time point of 0, 30, 60 and 180 minutes, 100 μL of the mixture is taken and diluted with 300 μL of acetonitrile. The mixture is vortexed and centrifuged. 350 μL of the liquid is transferred into a microfuge tube and concentrated using a rotational vacuum concentrator (Christ Beta-RVC, supplied by Quantum Scientific). 100 μL of acetonitrile-water (9:1, v/v) is added to the residue, vortexed and immediately analysed by LCMS/MS. Data from these experiments are expressed as percent of peak area recorded from the LCMS/MS trace at time zero (t0).

PAR2 [4] = molecular target: T1, PAR2; test: PAR2 agonist inhibition (antagonism): intracellular Ca2+ release in HT29 cells; format: cell-based; set-up: endogenous in cells; host or cells: HT29 (human colorectal adenocarcinoma); conditions: other ligands; inhibiting Ca2+ release in HT29 cells; 30 min pre-incubation, agonist at EC80
Experimental: Cells are seeded overnight in 96-well black walled, clear bottomed, plate at approximately 2×10^4 to 4×10^5 cells per well. […] The cells are then washed twice with HBSS and transferred to a Polarstar spectrofluorimeter (BMG, Durham N.C.).
The cells are prepared as outlined above then treated with the ‘putative’ antagonist 30 min prior to the addition of either trypsin or a synthetic agonist at a concentration equal to the agonists EC80.
The cells were then treated with 1 μM of the PAR2 agonist 2f-LIGRLO-NH2 (FIG. 2A, n=5) or 100 nM Trypsin (FIG. 2B, n=1). Each data point represents mean±SEM. Net changes in fluorescence were calculated as a percentage relative to the maximum response given 1 μM 2f-LIGRLO-NH2 or 100 nM Trypsin. Changes in fluorescence (% response) were plotted against logarithmic compound concentrations. The half maximal inhibitory concentration (IC50) values were derived from the dose response curve using a nonlinear regression curve in Graphpad Prism v5.

[5] = system: TNBS-induced chronic colitis; test: TNBS-induced chronic colitis model; format: in vivo, rat; conditions: 52 10 mg/kg/day, sulfasalazine 100 mg/kg/day p.o.
Experimental: On day 0, rats were weighed, given respective treatments of either sulfasalazine (100 mg/kg in olive oil p.o.), compound 52 (10 mg/kg in olive oil), or vehicle (500 l olive oil p.o.), and fasted for 24 h with water supplied ad libitum. The next day (day 1), rats were weighed, dosed with respective compound, and anesthetized with isofluorane. A polyethylene catheter was inserted intrarectally (8 cm). Control and drug-treated animals received an intracolonic dose of TNBS (80 mg/kg in saline and 250 l, 50% ethanol in water) (Fiorucci at al., 2001). Sham animals received vehicle only, with TNBS replaced by equivolume water. Rats were maintained in an inclined position (40°) for 30 min, then allowed to recover with food and water supplied. Rats were dosed daily with the respective compound, weighed, and scored for general health and disease progression. All rats were sacrificed on day 8 of experimentation unless they were sacrificed earlier. Disease progression and post-mortem colonic histopathology was scored by the following methods. PAR2 and tryptase co-localization were investigated by using immunohistochemistry.
DAI for both acute and chronic models was assessed and scored by an expert blinded to treatments. Scores incorporated mobility, gastrointestinal pathology, discomfort, and generalized sickness behaviour criteria (each scored 0-3). Any animal that reached stage 3 in any criteria was euthanized by CO2 inhalation and recorded as a disease-related mortality. Scores were summed and expressed as total disease score (maximum 12). DAI was measured at endpoint only (10 h) in the acute study and daily in the chronic TNBS study.
Colons were dissected post-mortem and given a macroscopic disease score based on that described previously (Bobin-Dubigeon et al., 2001) with some minor alterations (maximal score 14). The entire colon length was removed between the ileocolic and colorectal junction. Length and maximal distension width were measured. Sections of affected colon were taken for biochemical analysis, histology, and wet/dry weight.

PAR2 [6] = molecular target: T2, PAR2 (Mus musculus, UniProt P55086); test: Intracellular calcium mobilization in MIN6 beta cells; format: cell-based; conditions: concentration-dependent
T2 construct: endogenous in cells; host or cells: MIN6 (mouse pancreatic beta cell line)
T2 sequence (P55086 26-399): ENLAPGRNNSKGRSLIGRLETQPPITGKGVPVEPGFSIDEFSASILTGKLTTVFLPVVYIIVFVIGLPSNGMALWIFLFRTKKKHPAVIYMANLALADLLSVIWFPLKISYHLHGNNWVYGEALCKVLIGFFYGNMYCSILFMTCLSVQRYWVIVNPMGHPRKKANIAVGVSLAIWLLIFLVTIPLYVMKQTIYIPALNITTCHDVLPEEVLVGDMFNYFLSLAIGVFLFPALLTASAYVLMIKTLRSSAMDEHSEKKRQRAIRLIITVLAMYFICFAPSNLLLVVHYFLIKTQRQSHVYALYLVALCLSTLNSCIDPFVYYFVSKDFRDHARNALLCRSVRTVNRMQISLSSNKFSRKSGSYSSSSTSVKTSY
Experimental: Results: Pathogenesis of pancreatic dysfunction is linked to chronic nutritional surplus and elevated fatty acids, so in vivo and in vitro effects of compound 52 were evaluated on rat pancreas and mouse MIN6 beta cells. […] PAR2 agonists and compound 52 were further evaluated in vitro for glucose-stimulated insulin secretion (GSIS) and intracellular calcium mobilization in mouse MIN6 beta cells.

For 2-furoyl-LIGRL-NH2, the “agonist potency higher than SLIGRL-NH2” value (PAR2 [1]) is given as about 20 fold and the “selectivity among PARs” value (PAR2 [1]) is given as “selective for PAR2 over PAR1 and PAR4”.
In the case of `CC[C@H](C)[C@H](NC(=O)[C@H](CC1CCCCC1)NC(=O)c1ccno1)C(=O)NCc1ccccc1OC` [Compound 18, 5-isoxazoyl-Cha-Ile-aminomethyl-(2-methoxy)phenyl], the “paw swelling induced by 2-f-LIGRLO-NH2” value [2] is reported as “reduced the paw swelling” and the “stability in rat liver homogenate” value [3] is reported as “decomposed to varied degree”.
With `CC[C@H](C)[C@H](NC(=O)[C@H](CC1CCCCC1)NC(=O)c1ccno1)C(=O)N1CCC(c2ccccc2)CC1` [Compound 30, 5-isoxazoyl-Cha-Ile-(4-phenyl)piperidine] the “paw swelling induced by 2-f-LIGRLO-NH2” value [2] was “reduced the paw swelling” and the “stability in rat liver homogenate” value [3] was “decomposed to varied degree”.
Work on `CC[C@H](C)[C@@H](NC(=O)[C@@H](N)CC1CCCCC1)C(=O)N1CCC2(C=Cc3ccccc32)CC1` [Compound 41] yielded an IC50 (PAR2 [4]) of 17 µM.
With `CC[C@H](C)[C@@H](NC(=O)[C@H](CC1CCCCC1)NC(=O)c1cc(N)no1)C(=O)N1CCC2(C=Cc3ccccc32)CC1` [Compound 42, 5-(3-amino-isoxazoyl)-Cha-Ile-spiro[indene-1,4′-piperidine]] the “paw swelling induced by 2-f-LIGRLO-NH2” value [2] was “reduced the paw swelling” and the “stability in rat liver homogenate” value [3] was “decomposed to varied degree”.
For `CO[C@H](C)[C@@H](NC(=O)[C@H](CC1CCCCC1)NC(=O)c1ccno1)C(=O)N1CCC2(C=Cc3ccccc32)CC1` [Compound 44, 5-isoxazoyl-Cha-Thr(Me)-spiro[indene-1,4′-piperidine]], the “paw swelling induced by 2-f-LIGRLO-NH2” value [2] was “reduced the paw swelling” and the “stability in rat liver homogenate” value [3] was “decomposed to varied degree”.
`CC[C@H](C)[C@@H](NC(=O)[C@H](CC1CCCCC1)NC(=O)c1nc[nH]n1)C(=O)N1CCC2(C=Cc3ccccc32)CC1` [Compound 45] gave an IC50 (PAR2 [4]) of 15 µM.
For `CC[C@H](C)[C@@H](NC(=O)[C@H](CC1CCCCC1)NC(=O)c1cc(C)on1)C(=O)N1CCC2(C=Cc3ccccc32)CC1` [Compound 46], the IC50 (PAR2 [4]) was 25 µM.
Molecule `CC[C@H](C)[C@@H](NC(=O)[C@H](CC1CCCCC1)NC(=O)c1c[nH]cn1)C(=O)N1CCC2(C=Cc3ccccc32)CC1` [Compound 47] has an IC50 (PAR2 [4]) of 10 µM.
Molecule `CC[C@H](C)[C@@H](NC(=O)[C@H](CC1CCCCC1)NC(=O)C1CCNCC1)C(=O)N1CCC2(C=Cc3ccccc32)CC1` [Compound 48] has an IC50 (PAR2 [4]) of 50 µM.
In the case of `CC[C@H](C)[C@@H](NC(=O)[C@H](CC1CCCCC1)NC(=O)C1CCC(=O)N1)C(=O)N1CCC2(C=Cc3ccccc32)CC1` (some centres unmarked) [Compound 49], the IC50 (PAR2 [4]) is reported as 25 µM.
For `CC[C@H](C)[C@@H](NC(=O)[C@H](CC1CCCCC1)NC(=O)C1CCCN1)C(=O)N1CCC2(C=Cc3ccccc32)CC1` (some centres unmarked) [Compound 50], the IC50 (PAR2 [4]) was 50 µM.
`CC[C@H](C)[C@H](C(=O)N1CCC2(C=Cc3ccccc32)CC1)N(C)C(=O)[C@@H](N)CC1CCCCC1` [Compound 51] showed an IC50 (PAR2 [4]) of 5 to 10 µM.
`CC[C@H](C)[C@@H](NC(=O)[C@H](CC1CCCCC1)NC(=O)c1ccno1)C(=O)N1CCC2(CCc3ccccc32)CC1` [Compound 53] gave an IC50 (PAR2 [4]) of 3 µM.
In the case of `O=C(O)c1cc(/N=N/c2ccc(S(=O)(=O)Nc3ccccn3)cc2)ccc1O` [sulfasalazine, reference compound], the TNBS-mediated mortality [5] is reported as 33.3% and the “DAI compared with TNBS-controls” value ([5]; from day 2 onward) is reported as “marked improvements in DAI”.
For SLIGRL-NH2, the “intracellular calcium release in MIN6 beta cells” value (PAR2 [6]) was “activated intracellular calcium release”.
With trypsin the “intracellular calcium release in MIN6 beta cells” value (PAR2 [6]) was “activated intracellular calcium release”.

Source: patent US9868763B2, “Modulators of protease activated receptors” (The University of Queensland, priority 2011, dated 2018)
